Data set [1] has as its system HepG2 cells. The experiment in a line: Annexin V-FITC/PI flow cytometry apoptosis analysis. In kind it is cell-based, human. Particulars: 72 h; for percentage of early apoptotic cells: mean; for Q4 (lower right, early apoptotic cells), representative dot plot: Figure 3 picture. The method, then:
The apoptotic cells were quantified using an Annexin V-FITC (Sigma-Aldrich, USA) Apoptosis Detection Kit according to the manufacturer’s instructions. […] Five μL of Annexin V-fluorescein isothiocyanate (FITC) and 5 μL of PI were added. The analysis was performed with a FACScan flow cytometer (Coulter Epics Elite, Miami, FL, USA). The cells in the FITC-positive and PI-negative fraction were regarded as apoptotic cells.

Another data set concerns caspase-3. The experiment in a line: Western blot, cleaved caspase-3 in HepG2. Format: cell-based, human. The conditions noted are these: HepG2, 3, 6, 12, and 24 μg/mL, 72 h. The protocol: (§1) The protein was extracted with RIPA buffer and quantified using the Bradford method. Equal amounts of protein were loaded into each well. After SDS-PAGE, the proteins were transferred to a polyvinylidene difluoride (PVDF) membrane. The membrane was blocked with 5% non-fat milk for 1 h and incubated with a primary antibody (Cell Signaling Technology, Danvers, MA, USA, Rabbit monoclonal antibody, 1:1000) at 4 °C overnight. After washing two times with TBST (Tris-buffered saline with 0.1% Tween-20) buffer, the membrane was incubated with a secondary antibody (goat-anti-rabbit horseradish peroxidase (HRP)-conjugated 1:15,000) at room temperature for 1 h. The membranes were washed three times (8 min each time) with TBST. The intensity of the specific immunoreactive bands was detected through enhanced chemiluminescence (ECL).
In general terms: Immunoblotting shows a protein as a band on a membrane.

The test system of a further data set is caspase-9. Put plainly: Western blot, cleaved caspase-9 in HepG2. In kind it is cell-based, human. The conditions noted are these: HepG2, 3, 6, 12, and 24 μg/mL, 72 h. The protocol: as §1
Another data set concerns U87 cells. The experiment in a line: MTT anti-proliferative assay, U87. Format: cell-based, human. The conditions noted are these: for Cytotoxicity IC50, U87: human, 72 h. The protocol:
(§2) All of the cells were incubated at 37 °C in a humidified atmosphere composed of 95% air and 5% CO2. The cell viability was determined by measuring the ability of cells to transform MTT (Genview, Houston, TX, USA) to a purple formazan dye. The cells were seeded in 96-well tissue culture plates at 2.5 × 10^3 cells/well for 24 h. […] After incubation, 20 μL/well of MTT solution (5 mg/mL phosphate buffered saline) were added and incubated for 5 h. The medium was aspirated and replaced with 100 μL/well of DMSO to dissolve the formazan salt. The color intensity of the formazan solution, which reflects the cell growth condition, was measured at 570 nm using a microplate spectrophotometer (SpectroAma™ 250, Winooski, VT, USA).
(Tetrazolium dyes change colour on reduction, which living cells bring about.)

Another data set deals with SW480 cells. The experiment in a line: MTT anti-proliferative assay, SW480. In kind it is cell-based, human. The conditions noted are these: for Cytotoxicity IC50, SW480: human, 72 h. The method, then: as §2
Data set [2] concerns HepG2 cells. Put plainly: MTT anti-proliferative assay, HepG2. Format: cell-based, human. Particulars: for Cytotoxicity IC50, HepG2: human, 72 h. The method, then: as §2
The subject of the next data set is PARP. The experiment in a line: Western blot, cleaved PARP in HepG2. Format: cell-based, human. Particulars: HepG2, 3, 6, 12, and 24 μg/mL, 72 h. The protocol: as §1
The nature of data set [3]: MTT anti-proliferative assay, L02. The conditions noted are these: human. Format: cell-based. The method, then:
as §2

The subject of the next data set is MCF-7 cells. The experiment in a line: MTT anti-proliferative assay, MCF-7. The conditions noted are these: for Cytotoxicity IC50, MCF-7: human, 72 h. In kind it is cell-based, human. The protocol:
as §2

The test system of data set [4] is HepG2 cells. Put plainly: Hoechst33342 staining, nuclear damage observation. Particulars: HepG2, 3, 6, 12 μg/mL, 72 h. In kind it is cell-based, human. The protocol:
Apoptotic nuclear morphology was visualized by the Hoechsst33342 staining technique. Cells were fixed with 3.7% of paraformaldehyde for 10 min at room temperature and washed three times with PBS. Thus, paraformaldehyde-fixed cells were stained using Hoechsst33342 (10 μg/mL) in the dark for 10 min. After washing three times with PBS, cells were visualized using fluorescence microscope.

In data set [5] the test system is human renal cell carcinoma GRC-1. Particulars: earlier research; cited from earlier work.
The subject of data set [6] is hepatocellular carcinoma HepG2. The conditions noted are these: earlier research; cited from earlier work.

≈ marks a conversion by molar mass, not a printed value. Where only a bound is given, the exact number is not on record here.

What is called IC50 is the point on the concentration scale where inhibition reaches its midpoint. Low readings indicate higher potency, high ones lower potency.

Turning to `CC(C)C[C@@H]1NC(=O)[C@@H](CC(C)C)NC(=O)[C@@H](CC(C)C)N(C)C(=O)[C@@H](CC(C)C)NC(=O)[C@@H](Cc2ccccc2)N(C)C1=O` [Compound A5, Cyclo(Leu-D-N-Me-Phe-D-Leu-D-N-Me-Leu-D-Leu)], the “percentage of early apoptotic cells” value in the data set on HepG2 cells [1] (HepG2, 3 μg/mL) is 6.6% ± 1.7%; in the data set on HepG2 cells [1] (HepG2, 12 μg/mL), 22.4% ± 2.4%. Besides, the “Q4 (lower right, early apoptotic cells), representative dot plot” value amounted to 6.6% with HepG2 cells [1] (HepG2, 3 μg/ml); 19.9% in the data set on HepG2 cells [1] (HepG2, 6 μg/ml); 22.4% in the data set with HepG2 cells [1] (HepG2, 12 μg/ml). Besides, in the data set on caspase-3, the “cleaved caspase-3 expression” value is “significantly increased”. For the same compound, the “cleaved caspase-9 expression” value in the data set with caspase-9 is listed as “significantly increased”. In addition, in the data set on U87 cells, the “Cytotoxicity IC50, U87” value came to 1.85 ± 0.11 µg/mL. In the data set on U87 cells (ratio of IC50 values), the “fold more active than galaxamide, U87” value is 5.73 fold. Moreover, the “Cytotoxicity IC50, SW480” value with SW480 cells worked out at 5.10 ± 0.12 µg/mL. Besides, the “fold more active than galaxamide, SW480” value in the data set on SW480 cells (ratio of IC50 values) is recorded as 8.59 fold. In the data set with HepG2 cells [2], the “Cytotoxicity IC50, HepG2” value was determined as 1.46 ± 0.09 µg/mL. The “fold more active than galaxamide, HepG2” value in the data set with HepG2 cells [2] (ratio of IC50 values) turned out to be 3.17 fold. The “cleaved PARP expression” value in the data set on PARP is recorded as “significantly increased”. In data set [3], this compound had an IC50 at 72 h of 10.6 ± 0.6 µg/mL (≈ 16.8 µM). For the same compound, the “Cytotoxicity IC50, MCF-7” value in the data set with MCF-7 cells was found to be 4.18 ± 0.15 µg/mL. Besides, the “fold more active than galaxamide, MCF-7” value in the data set on MCF-7 cells (ratio of IC50 values) is 3.37 fold. The “nuclear morphology (Hoechst33342)” value with HepG2 cells [4] is “chromatin condensation at the edges of the nuclear membrane and nuclear fragmentation”.
For the compound `CC(C)C[C@@H]1NC(=O)[C@@H](CC(C)C)N(C)C(=O)[C@H](CC(C)C)NC(=O)[C@@H](Cc2ccccc2)N(C)C(=O)[C@@H](CC(C)C)NC1=O` [Compound A4, Cyclo(Me-D-Leu-Leu-D-Leu-Me-D-Phe-Leu)], the “Cytotoxicity IC50, U87” value in the data set with U87 cells came out at 2.82 ± 0.10 µg/mL. Besides, in the data set on SW480 cells, the “Cytotoxicity IC50, SW480” value stood at 8.60 ± 0.08 µg/mL. Besides, in the data set with HepG2 cells [2], the “Cytotoxicity IC50, HepG2” value was 6.27 ± 0.13 µg/mL. In data set [3], this compound gave an IC50 at 72 h greater than 40 µg/mL. For the same compound, in the data set on MCF-7 cells, the “Cytotoxicity IC50, MCF-7” value was determined as 6.56 ± 0.18 µg/mL.
On to `CC(C)C[C@@H]1NC(=O)[C@H](CC(C)C)N(C)C(=O)[C@H](CC(C)C)NC(=O)[C@H](CC(C)C)N(C)C(=O)[C@@H](Cc2ccccc2)NC1=O` [Compound A2, Cyclo(D-Phe-N-Me-Leu-Leu-N-Me-Leu-D-Leu)], for which the “Cytotoxicity IC50, U87” value in the data set on U87 cells is greater than 40 µg/mL. Besides, in the data set with SW480 cells, the “Cytotoxicity IC50, SW480” value amounted to 5.75 ± 0.19 µg/mL. In addition, the “Cytotoxicity IC50, HepG2” value in the data set on HepG2 cells [2] is 4.56 ± 0.20 µg/mL. For the same compound, the 50% inhibitory concentration (IC50) at 72 h in data set [3] is greater than 40 µg/mL. Further, the “Cytotoxicity IC50, MCF-7” value in the data set on MCF-7 cells stood at 9.64 ± 0.35 µg/mL.
Consider `CC(C)C[C@@H]1NC(=O)[C@@H](CC(C)C)N(C)C(=O)[C@H](CC(C)C)NC(=O)[C@@H](Cc2ccccc2)N(C)C(=O)[C@H](CC(C)C)NC1=O` [Compound A3, Cyclo(Me-D-Leu-Leu-Leu-Me-D-Phe-Leu)], for which, in the data set on U87 cells, the “Cytotoxicity IC50, U87” value stood at 20.16 ± 0.30 µg/mL. For the same compound, the “Cytotoxicity IC50, SW480” value with SW480 cells turned out to be 10.20 ± 0.15 µg/mL. Also, the “Cytotoxicity IC50, HepG2” value in the data set on HepG2 cells [2] came to 5.58 ± 0.11 µg/mL. In data set [3], the half-maximal inhibitory concentration (IC50) at 72 h is greater than 40 µg/mL. The “Cytotoxicity IC50, MCF-7” value in the data set with MCF-7 cells came to 7.23 ± 0.27 µg/mL.
Take `CC(C)C[C@@H]1NC(=O)[C@H](CC(C)C)N(C)C(=O)[C@H](CC(C)C)NC(=O)[C@H](CC(C)C)N(C)C(=O)[C@H](Cc2ccccc2)NC1=O` [Compound A1, Cyclo(Phe-N-Me-Leu-Leu-N-Me-Leu-Leu)]: the “Cytotoxicity IC50, U87” value in the data set on U87 cells is greater than 40 µg/mL. For the same compound, in the data set on SW480 cells, the “Cytotoxicity IC50, SW480” value was determined as 12.37 ± 1.01 µg/mL. For the same compound, the “Cytotoxicity IC50, HepG2” value with HepG2 cells [2] worked out at 4.11 ± 0.16 µg/mL. The compound further had an IC50 at 72 h in data set [3] greater than 40 µg/mL. For the same compound, in the data set with MCF-7 cells, the “Cytotoxicity IC50, MCF-7” value turned out to be 9.40 ± 0.43 µg/mL.
For Galaxamide, the “percentage of early apoptotic cells” value in the data set on HepG2 cells [1] (HepG2, 6 μg/mL) is given as 2.3% ± 0.3%; with HepG2 cells [1] (HepG2, 24 μg/mL), 18.8% ± 1.9%. In addition, the “Q4 (lower right, early apoptotic cells), representative dot plot” value in the data set with HepG2 cells [1] (HepG2, 6 μg/ml) is on record as 2.1%; in the data set on HepG2 cells [1] (HepG2, 12 μg/ml), 13.4%; in the data set with HepG2 cells [1] (HepG2, 24 μg/ml) it was 18.8%. Moreover, in the data set on caspase-3, the “cleaved caspase-3 expression” value is “significantly increased”. The “cleaved caspase-9 expression” value with caspase-9 is on record as “significantly increased”. Moreover, the “antitumor activity against GRC-1” value in data set [5] was “significant antitumor activity”. The “cleaved PARP expression” value in the data set with PARP is recorded as “significantly increased”. Further, the “antitumor activity against HepG2” value in [6] is “significant antitumor activity”. The “nuclear morphology (Hoechst33342)” value in the data set on HepG2 cells [4] was “chromatin condensation at the edges of the nuclear membrane and nuclear fragmentation”.

The values are drawn from paper PMC4145329 (Marine Drugs, 2014).
